Experimental data as given in ChEMBL document CHEMBL1128137, “A novel series of highly potent 5-lipoxygenase inhibitors; 2-aryldienylbenzoxazoles” (Bioorg Med Chem Lett, 1995).

Molecular target: T1, Polyunsaturated fatty acid 5-lipoxygenase (Rattus norvegicus, UniProt P12527)
T1 sequence (P12527 whole entry): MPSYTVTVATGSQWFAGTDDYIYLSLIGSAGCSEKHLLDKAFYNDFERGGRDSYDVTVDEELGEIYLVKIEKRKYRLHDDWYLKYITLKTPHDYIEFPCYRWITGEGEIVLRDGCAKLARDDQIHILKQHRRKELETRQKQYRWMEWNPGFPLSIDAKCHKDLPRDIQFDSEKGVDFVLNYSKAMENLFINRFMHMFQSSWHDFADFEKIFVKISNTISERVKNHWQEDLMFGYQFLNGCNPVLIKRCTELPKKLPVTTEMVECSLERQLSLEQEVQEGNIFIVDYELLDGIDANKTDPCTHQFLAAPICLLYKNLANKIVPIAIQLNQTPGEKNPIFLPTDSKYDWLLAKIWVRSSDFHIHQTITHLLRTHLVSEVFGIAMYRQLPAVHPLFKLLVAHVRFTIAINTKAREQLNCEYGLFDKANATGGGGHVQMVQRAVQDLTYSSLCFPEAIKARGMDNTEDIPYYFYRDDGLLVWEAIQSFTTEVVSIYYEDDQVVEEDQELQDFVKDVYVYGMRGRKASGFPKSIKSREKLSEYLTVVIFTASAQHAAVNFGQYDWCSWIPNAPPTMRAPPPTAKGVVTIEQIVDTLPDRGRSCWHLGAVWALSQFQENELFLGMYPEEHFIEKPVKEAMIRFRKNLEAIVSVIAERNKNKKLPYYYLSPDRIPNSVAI
Assay: Inhibition of 5-lipoxygenase of rat basophilic leukemia (RBL) cell cytosolic enzymes
Design: species or system RBL-1

| Structure (SMILES) | IC50 |
| --- | --- |
| Oc1ccc(/C=C/C=C/c2nc3ccccc3o2)cc1O | 30 nM |
| COc1cc(/C=C/C=C/c2nc3ccc(CO)cc3o2)ccc1O | 300 nM |
| COc1cc(/C=C/C=C/c2nc3c(ccc4ccccc43)o2)ccc1O | 170 nM |
| COc1cc(/C=C/C=C/c2nc3cc(C(=O)O)ccc3o2)ccc1O | 5800 nM |
| COc1cc(/C=C/C=C/c2nc3cc(CO)ccc3o2)ccc1O | 260 nM |
| COc1cc(/C=C/C=C/c2nc3cc(C)ccc3o2)ccc1O | 290 nM |
| CCOC(=O)c1ccc2oc(/C=C/C=C/c3ccc(O)c(O)c3)nc2c1 | 20 nM |
| CCOC(=O)/C=C/c1ccc(O)c(O)c1 [ETHYL CAFFEATE] | 1150 nM |

Continued by falling IC50, values first:

| IC50 | Structure (SMILES) |
| --- | --- |
| 380 nM | COc1cc(/C=C/C=C/c2nc3cc(Cl)ccc3o2)ccc1O |
| 370 nM | COc1cc(/C=C/C=C/c2nc3ncccc3o2)ccc1O |
| 330 nM | COc1cc(/C=C/C=C/c2nc3ccccc3o2)ccc1O |
| 250 nM | CCOC(=O)c1ccc2oc(/C=C/C=C/c3ccc(O)c(OC)c3)nc2c1 |
| 150 nM | COc1cc(/C=C/C=C/C(=O)NCCN2CCC(OC(c3ccccc3)c3ccccc3)CC2)ccc1O |
| 130 nM | CCOC(=O)c1ccc2nc(/C=C/C=C/c3ccc(O)c(OC)c3)oc2c1 |
